In BigSolDB 2.1:

c1ccc(-c2ccc(C(c3ccccc3)n3ccnc3)cc2)cc1 (stereo unspecified)
Details	solubility (mole fraction)
in DMF, 283.17 K	0.0149
in DMF, 288.13 K	0.0177
in DMF, 293.15 K	0.0208
in DMF, 298.18 K	0.0245
in DMF, 303.14 K	0.029
in DMF, 308.09 K	0.0341
in DMF, 313.25 K	0.0403
in DMF, 318.13 K	0.0482
in DMF, 323.18 K	0.0565
in acetonitrile, 283.24 K	0.00109
in acetonitrile, 288.17 K	0.0014
in acetonitrile, 293.15 K	0.00176
in acetonitrile, 298.14 K	0.00221
in acetonitrile, 303.08 K	0.00277
in acetonitrile, 308.13 K	0.00347
in acetonitrile, 313.16 K	0.00439
in acetonitrile, 318.14 K	0.00541
in acetonitrile, 323.11 K	0.00682
in ethanol, 283.15 K	0.0028
in ethanol, 288.18 K	0.00342
in ethanol, 293.13 K	0.00407
in ethanol, 298.15 K	0.00512
in ethanol, 303.17 K	0.0064
in ethanol, 308.14 K	0.00782
in ethanol, 313.15 K	0.00965
in ethanol, 318.2 K	0.0122
in ethanol, 323.14 K	0.0151
in ethyl acetate, 283.16 K	0.00238
in ethyl acetate, 288.14 K	0.00305
in ethyl acetate, 293.17 K	0.00385
in ethyl acetate, 298.13 K	0.00471
in ethyl acetate, 303.18 K	0.00579
in ethyl acetate, 308.12 K	0.00724
in ethyl acetate, 313.1 K	0.00892
in ethyl acetate, 318.13 K	0.0113
in ethyl acetate, 323.1 K	0.0139
in isobutanol, 283.14 K	0.00308
in isobutanol, 288.17 K	0.0041
in isobutanol, 293.13 K	0.00528
in isobutanol, 298.12 K	0.00659
in isobutanol, 303.16 K	0.00865
in isobutanol, 308.15 K	0.0114
in isobutanol, 313.19 K	0.0148
in isobutanol, 318.14 K	0.0197
in isobutanol, 323.16 K	0.0256
in isopentanol, 283.13 K	0.00402
in isopentanol, 288.17 K	0.00512
in isopentanol, 293.07 K	0.00652
in isopentanol, 298.14 K	0.00831
in isopentanol, 303.17 K	0.0105
in isopentanol, 308.13 K	0.0133
in isopentanol, 313.18 K	0.0171
in isopentanol, 318.15 K	0.0216
in isopentanol, 323.24 K	0.0281
in isopropanol, 283.16 K	0.00137
in isopropanol, 288.14 K	0.00173
in isopropanol, 293.15 K	0.0022
in isopropanol, 298.18 K	0.00285
in isopropanol, 303.17 K	0.00362
in isopropanol, 308.13 K	0.00472
in isopropanol, 313.16 K	0.00605
in isopropanol, 318.1 K	0.00802
in isopropanol, 323.14 K	0.0105
in methyl acetate, 283.12 K	0.00263
in methyl acetate, 288.14 K	0.00334
in methyl acetate, 293.15 K	0.00413
in methyl acetate, 298.19 K	0.00509
in methyl acetate, 303.17 K	0.00618
in methyl acetate, 308.14 K	0.0076
in methyl acetate, 313.18 K	0.00926
in methyl acetate, 318.15 K	0.0111
in methyl acetate, 323.13 K	0.013
in n-butanol, 283.15 K	0.00386
in n-butanol, 288.19 K	0.00509
in n-butanol, 293.16 K	0.00645
in n-butanol, 298.14 K	0.00808
in n-butanol, 303.15 K	0.01
in n-butanol, 308.23 K	0.0132
in n-butanol, 313.11 K	0.0163
in n-butanol, 318.18 K	0.0203
in n-butanol, 323.14 K	0.0257
in n-butyl acetate, 283.13 K	0.00191
in n-butyl acetate, 288.16 K	0.00233
in n-butyl acetate, 293.14 K	0.00285
in n-butyl acetate, 298.19 K	0.00345
in n-butyl acetate, 303.15 K	0.00434
in n-butyl acetate, 308.18 K	0.00527
in n-butyl acetate, 313.14 K	0.00676
in n-butyl acetate, 318.13 K	0.00835
in n-butyl acetate, 323.15 K	0.0109
in n-pentanol, 283.1 K	0.00445
in n-pentanol, 288.13 K	0.00581
in n-pentanol, 293.15 K	0.00739
in n-pentanol, 298.19 K	0.00941
in n-pentanol, 303.16 K	0.0117
in n-pentanol, 308.14 K	0.0149
in n-pentanol, 313.17 K	0.0184
in n-pentanol, 318.16 K	0.0234
in n-pentanol, 323.12 K	0.029
in n-propanol, 283.12 K	0.00381
in n-propanol, 288.14 K	0.00458
in n-propanol, 293.15 K	0.00585
in n-propanol, 298.18 K	0.00719
in n-propanol, 303.16 K	0.00909
in n-propanol, 308.21 K	0.0115
in n-propanol, 313.16 K	0.0143
in n-propanol, 318.19 K	0.0172
in n-propanol, 323.17 K	0.0211
in n-propyl acetate, 283.15 K	0.00215
in n-propyl acetate, 288.16 K	0.00261
in n-propyl acetate, 293.09 K	0.00342
in n-propyl acetate, 298.14 K	0.00433
in n-propyl acetate, 303.15 K	0.00541
in n-propyl acetate, 308.17 K	0.00683
in n-propyl acetate, 313.11 K	0.0087
in n-propyl acetate, 318.16 K	0.0106
in n-propyl acetate, 323.1 K	0.0131
in sec-butanol, 283.13 K	0.00212
in sec-butanol, 288.16 K	0.00286
in sec-butanol, 293.14 K	0.0037
in sec-butanol, 298.17 K	0.00503
in sec-butanol, 303.15 K	0.00647
in sec-butanol, 308.12 K	0.00841
in sec-butanol, 313.19 K	0.011
in sec-butanol, 318.16 K	0.0145
in sec-butanol, 323.15 K	0.0183
